Values of other authors as cited in patent US11612885B2, “Methods, compositions and kits useful for pH gradient cation exchange chromatography” (WATERS TECHNOLOGIES CORPORATION, priority 2018, dated 2023).

Settings: buffer salts used in the Examples

| SMILES | pKa1 | pKa2 |
| --- | --- | --- |
| NC(=O)CNCCS(=O)(=O)O [ACES, 2-(carbamoylmethylamino)ethanesulfonic acid] | 6.9 | – |
| CC(C)(N)CO [AMP, 2-amino-2-methyl-1-propanol] | 9.7 | – |
| CC(N)(CO)CO [AMPD, 2-amino-2-methyl-1,3-propanediol] | 8.8 | – |
| OCC(CO)(CO)NCCCNC(CO)(CO)CO [BIS-TRIS Propane, 1,3-bis(tris(hydroxymethyl)methylamino)propane] | 6.8 | 9.1 |
| O=S(=O)(O)CCCNC1CCCCC1 [CAPS, 3-(Cyclohexylamino)-1-propanesulfonic acid] | 10.4 | – |
| NCC(=O)O [Gly, Aminoethanoic acid] | 2.4 | 8.1 |
| NCC(=O)NCC(=O)O [Gly-Gly, 2-[(2-Aminoacetyl)amino] acetic acid] | 3.1 | 8.1 |
| c1c[nH]cn1 [Imidazole, 1,3-diazacyclopenta-2,4-diene] | 7.0 | – |
| O=C(O)CCC(=O)O [Succinic Acid, 1,4-butandioic acid] | 4.1 | 5.5 |

Settings: background statement; exposure

| SMILES | known toxicity |
| --- | --- |
| C1CNCCN1 [Piperazine, 1,4-Diazinane] | acute respiratory and skin irritation as well as organ damage with prolonged exposure |
